Reference: patent US12319664B2, “Herbicidally active 3-phenylisoxazoline-5-carboxamides of cyclopentenylcarboxylic acid derivatives” (Bayer Aktiengesellschaft, priority 2018, dated 2025)

Tests used:
[1] = test system: HORMU; assay: Pre-emergence herbicidal action against HORMU; assay type: in vivo, Hordeum murinum; settings: application rate 80 g/ha
Description: (§1) 1. Pre-emergence herbicidal action against harmful plants and crop plant compatibility Seeds of monocotyledonous and dicotyledonous weed plants and crop plants are placed in plastic or wood-fibre pots and covered with soil. The compounds of the invention, formulated in the form of wettable powders (WP) or as emulsion concentrates (EC), are then applied onto the surface of the covering soil as aqueous suspension or emulsion with addition of 0.5% additive at a water application rate of 600 l/ha (converted). After the treatment, the pots are placed in a greenhouse and kept under good growth conditions for the trial plants. After about 3 weeks, the effect of the preparations is scored visually in comparison with untreated controls as percentages. For example, 100% activity=the plants have died, 0% activity=like control plants. [table]

[2] = test system: ECHCG; assay: Pre-emergence herbicidal action against ECHCG; assay type: in vivo, Echinochloa crus-galli; settings: application rate 80 g/ha, scored visually after about 3 weeks vs untreated controls (100% = plants have died, 0% = like control plants)
Description: as §1

[3] = test system: STEME; assay: Post-emergence herbicidal action against STEME; assay type: in vivo, Stellaria media; settings: application rate 80 g/ha, rated visually about 3 weeks after treatment
In short: (§2)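 Foliar application at 600 l/ha water, 0.5% additive, WP or EC formulation; plants at one-leaf stage in greenhouse sandy loam pots. Scored visually ~3 weeks post-treatment, 0–100% relative to untreated plants.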

[4] = test system: STEME; assay: Pre-emergence herbicidal action against STEME; assay type: in vivo, Stellaria media; settings: application rate 80 g/ha
Description: as §1

[5] = test system: SETVI; assay: Pre-emergence herbicidal action against SETVI; assay type: in vivo, Setaria viridis; settings: application rate 80 g/ha, scored visually after about 3 weeks vs untreated controls (100% = plants have died, 0% = like control plants)
Description: as §1

[6] = test system: VIOTR; assay: Post-emergence herbicidal action against VIOTR; assay type: in vivo, Viola tricolor; settings: application rate 80 g/ha, rated visually about 3 weeks after treatment
In short: as §2

[7] = test system: ALOMY; assay: Pre-emergence herbicidal action against ALOMY; assay type: in vivo, Alopecurus myosuroides; settings: application rate 80 g/ha, scored visually after about 3 weeks vs untreated controls (100% = plants have died, 0% = like control plants)
Description: as §1

[8] = test system: AVEFA; assay: Pre-emergence herbicidal action against AVEFA; assay type: in vivo, Avena fatua; settings: application rate 80 g/ha, scored visually after about 3 weeks vs untreated controls (100% = plants have died, 0% = like control plants)
Description: as §1

[9] = test system: POLCO; assay: Pre-emergence herbicidal action against POLCO; assay type: in vivo, Polygonum convolvulus; settings: application rate 80 g/ha
Description: as §1

[10] = test system: VIOTR; assay: Pre-emergence herbicidal action against VIOTR; assay type: in vivo, Viola tricolor; settings: application rate 80 g/ha
Description: as §1

[11] = test system: LOLRI; assay: Pre-emergence herbicidal action against LOLRI; assay type: in vivo, Lolium rigidum; settings: application rate 80 g/ha, scored visually after about 3 weeks vs untreated controls (100% = plants have died, 0% = like control plants)
Description: as §1

[12] = test system: ECHCG; assay: Post-emergence herbicidal action against ECHCG; assay type: in vivo, Echinochloa crus-galli; settings: application rate 80 g/ha, rated visually after about 3 weeks
In short: as §2

[13] = test system: VERPE; assay: Post-emergence herbicidal action against VERPE; assay type: in vivo, Veronica persica; settings: application rate 80 g/ha
In short: as §2

[14] = test system: AMARE; assay: Pre-emergence herbicidal action against AMARE; assay type: in vivo, Amaranthus retroflexus; settings: application rate 80 g/ha
Description: as §1

[15] = test system: ALOMY; assay: Post-emergence herbicidal action against ALOMY; assay type: in vivo, Alopecurus myosuroides; settings: application rate 80 g/ha, rated visually after about 3 weeks
In short: as §2

[16] = test system: VERPE; assay: Pre-emergence herbicidal action against VERPE; assay type: in vivo, Veronica persica; settings: application rate 80 g/ha
Description: as §1

[17] = test system: LOLRI; assay: Post-emergence herbicidal action against LOLRI; assay type: in vivo, Lolium rigidum; settings: application rate 80 g/ha, rated visually after about 3 weeks
In short: as §2

[18] = test system: AVEFA; assay: Post-emergence herbicidal action against AVEFA; assay type: in vivo, Avena fatua; settings: application rate 80 g/ha, rated visually after about 3 weeks
In short: as §2

[19] = test system: AMARE; assay: Post-emergence herbicidal action against AMARE; assay type: in vivo, Amaranthus retroflexus; settings: application rate 80 g/ha, rated visually about 3 weeks after treatment
In short: as §2

[20] = test system: HORMU; assay: Post-emergence herbicidal action against HORMU; assay type: in vivo, Hordeum murinum; settings: application rate 80 g/ha
In short: as §2

[21] = test system: ABUTH; assay: Post-emergence herbicidal action against ABUTH; assay type: in vivo, Abutilon theophrasti; settings: application rate 80 g/ha, rated visually about 3 weeks after treatment
In short: as §2

[22] = test system: SETVI; assay: Post-emergence herbicidal action against SETVI; assay type: in vivo, Setaria viridis; settings: application rate 80 g/ha, rated visually after about 3 weeks
In short: as §2

[23] = test system: PHBPU; assay: Pre-emergence herbicidal action against PHBPU; assay type: in vivo, Pharbitis purpurea; settings: application rate 80 g/ha
Description: as §1

[24] = test system: POLCO; assay: Post-emergence herbicidal action against POLCO; assay type: in vivo, Polygonum convolvulus; settings: application rate 80 g/ha, rated visually about 3 weeks after treatment
In short: as §2

[25] = test system: MATIN; assay: Pre-emergence herbicidal action against MATIN; assay type: in vivo, Matricaria inodora; settings: application rate 80 g/ha, scored visually after about 3 weeks vs untreated controls (100% = plants have died, 0% = like control plants)
Description: as §1

[26] = test system: PHBPU; assay: Post-emergence herbicidal action against PHBPU; assay type: in vivo, Pharbitis purpurea; settings: application rate 80 g/ha, rated visually about 3 weeks after treatment
In short: as §2

Question: Which “Herbicidal action against [%] HORMU” value [1] does the source give for `CC1(C(=O)NC2C=CC(C(=O)N3CCCCO3)C2)CC(c2cc(F)cc(F)c2)=NO1` (mixture of isomers) [II-07] here?
Answer: 90%

Question: And the “Herbicidal action against [%] ECHCG” value [2]?
Answer: 90%

Question: And the “Herbicidal action against [%] STEME” value [3]?
Answer: 90%

Question: And the “Herbicidal action against [%] STEME” value [4]?
Answer: 100%

Question: And the “Herbicidal action against [%] SETVI” value [5]?
Answer: 100%

Question: What about the “Herbicidal action against [%] VIOTR” value [6] of the same compound?
Answer: 80%

Question: And the “Herbicidal action against [%] ALOMY” value [7]?
Answer: 100%

Question: And the “Herbicidal action against [%] AVEFA” value [8]?
Answer: 80%

Question: What about the “Herbicidal action against [%] POLCO” value [9] of the same compound?
Answer: 100%

Question: And the “Herbicidal action against [%] VIOTR” value [10]?
Answer: 100%

Question: What about the “Herbicidal action against [%] LOLRI” value [11] of the same compound?
Answer: 100%

Question: What about the “Herbicidal action against [%] ECHCG” value [12] of the same compound?
Answer: 80%

Question: What about the “Herbicidal action against [%] VERPE” value [13] of the same compound?
Answer: 80%

Question: And the “Herbicidal action against [%] AMARE” value [14]?
Answer: 100%

Question: What about the “Herbicidal action against [%] ALOMY” value [15] of the same compound?
Answer: 80%

Question: What about the “Herbicidal action against [%] VERPE” value [16] of the same compound?
Answer: 100%

Question: And the “Herbicidal action against [%] LOLRI” value [17]?
Answer: 80%

Question: What about the “Herbicidal action against [%] AVEFA” value [18] of the same compound?
Answer: 80%

Question: What does the source list for `CCOC(=O)C1=CC[C@H](NC(=O)C2(C)CC(c3cccc(F)c3)=NO2)C1` (stereo partly drawn) [III-06]?
Answer: Herbicidal action against [%] HORMU [1]: 90%; Herbicidal action against [%] ECHCG [2]: 90%; Herbicidal action against [%] STEME [3]: 90%; Herbicidal action against [%] STEME [4]: 90%; Herbicidal action against [%] SETVI [5]: 100%; Herbicidal action against [%] AMARE [19]: 80%; Herbicidal action against [%] ALOMY [7]: 100%; Herbicidal action against [%] AVEFA [8]: 80%; Herbicidal action against [%] POLCO [9]: 100%; Herbicidal action against [%] HORMU [20]: 90%; Herbicidal action against [%] VIOTR [10]: 90%; Herbicidal action against [%] ABUTH [21]: 80%; Herbicidal action against [%] LOLRI [11]: 100%; Herbicidal action against [%] ECHCG [12]: 80%; Herbicidal action against [%] ALOMY [15]: 90%; Herbicidal action against [%] SETVI [22]: 80%; Herbicidal action against [%] VERPE [16]: 80%; Herbicidal action against [%] PHBPU [23]: 80%; Herbicidal action against [%] POLCO [24]: 80%; Herbicidal action against [%] LOLRI [17]: 90%; Herbicidal action against [%] AVEFA [18]: 80%

Question: What does the source list for `CCONC(=O)[C@@H]1C=C[C@H](NC(=O)C2(C)CC(c3cccc(F)c3)=NO2)C1` (stereo partly drawn) [II-04]?
Answer: Herbicidal action against [%] HORMU [1]: 90%; Herbicidal action against [%] ECHCG [2]: 90%; Herbicidal action against [%] STEME [3]: 80%; Herbicidal action against [%] STEME [4]: 100%; Herbicidal action against [%] SETVI [5]: 90%; Herbicidal action against [%] ALOMY [7]: 100%; Herbicidal action against [%] AVEFA [8]: 80%; Herbicidal action against [%] POLCO [9]: 90%; Herbicidal action against [%] LOLRI [11]: 90%; Herbicidal action against [%] ECHCG [12]: 80%; Herbicidal action against [%] AMARE [14]: 100%; Herbicidal action against [%] ALOMY [15]: 80%; Herbicidal action against [%] MATIN [25]: 80%; Herbicidal action against [%] SETVI [22]: 80%; Herbicidal action against [%] LOLRI [17]: 80%; Herbicidal action against [%] AVEFA [18]: 80%

Question: Which results are given for `CC1(C(=O)NC2CC=C(C(=O)NS(C)(=O)=O)C2)CC(c2cccc(F)c2)=NO1` (mixture of isomers) [IV-07]?
Answer: Herbicidal action against [%] HORMU [1]: 90%; Herbicidal action against [%] PHBPU [26]: 80%; Herbicidal action against [%] STEME [3]: 90%; Herbicidal action against [%] STEME [4]: 100%; Herbicidal action against [%] SETVI [5]: 100%; Herbicidal action against [%] AMARE [19]: 80%; Herbicidal action against [%] VIOTR [6]: 80%; Herbicidal action against [%] ALOMY [7]: 100%; Herbicidal action against [%] AVEFA [8]: 80%; Herbicidal action against [%] POLCO [9]: 80%; Herbicidal action against [%] HORMU [20]: 90%; Herbicidal action against [%] VIOTR [10]: 90%; Herbicidal action against [%] LOLRI [11]: 90%; Herbicidal action against [%] ECHCG [12]: 80%; Herbicidal action against [%] VERPE [13]: 80%; Herbicidal action against [%] AMARE [14]: 80%; Herbicidal action against [%] ALOMY [15]: 90%; Herbicidal action against [%] MATIN [25]: 80%; Herbicidal action against [%] SETVI [22]: 80%; Herbicidal action against [%] PHBPU [23]: 90%; Herbicidal action against [%] POLCO [24]: 80%; Herbicidal action against [%] LOLRI [17]: 90%; Herbicidal action against [%] AVEFA [18]: 80%
